From US12037327B2, “Compounds and methods targeting GPER for treatment of diseases associated with calcium” (Saint Louis University, priority 2018, dated 2024) come the findings set out here.

Usually EC50 stands for the concentration at which the effect is half-maximal.

Molecules are shown by their SMILES.

Type in all cases: cell-based
The target of one assay is T1, GPER (Homo sapiens, UniProt Q99527).
T1 construct: siRNA was used to knock-down expression of GPER; endogenous in cells; host or cells: HL-60 (human myelocytic leukemia) cells
Kind of assay: calcium mobilization assay, agonists tested against EC50 of GPER antagonist G-36. The note with it: for change in calcium efflux in response to G-36: agonist at 100 nM against EC50 of G-36, normalized; for calcium signal when antagonized with G-36: concentration not given. Here is the method: Each signal was normalized to the baseline signaling of G-36 and the maximum signal achieved by the specific agonist. Results are shown at 100 nM.
Calcium mobilization signal was assessed with the use of 0.1% pluronic acid and 5 μM Indo-1AM, a ratiometric dye. The EC50 values were determined based upon triplicate runs on triplicate plates. […] Cyclic AMP formation through the Gi/o-pathway was monitored utilizing a homogenous time-resolved fluorescence assay purchased from CisBio. A triplicate was performed and an EC50 value was calculated. […] The EC50 values were determined based upon triplicate runs on a triplicate plates. To confirm that calcium efflux originated from activation of the G protein-coupled estrogen receptor (GPER), a known selective antagonist, G-36 was used to antagonize the signal. […] Additional data can be found in FIG. 9. […] Without wishing to be bound by any theory, it is believed that within the new functionalization of the scaffold the lone pair on the oxygen of furfuran ring system and the nitrogen on pyridinyl ring system work to activate the receptor. […] Based upon neurite outgrowth studies and without wishing to be bound by any theory, it is believed that the compounds may aid in the elongation and connectivity of neurons. This has implication in a variety of neurodegenerative diseases, such as Alzheimer's disease and Parkinson's disease, but also psychiatric illnesses including Austism and Schizophrenia.
For orientation: Calcium flux is commonly read through the fluorescence of an indicator in the cells.

The target of assay [1] is T2, G protein-coupled estrogen receptor (GPER) (Homo sapiens, UniProt Q99527).
T2 construct: siRNA was used to knock-down expression of GPER; endogenous in cells; host or cells: HL-60 (human myelocytic leukemia) cells
Briefly: HTRF cAMP formation assay in HL-60 cells. To be noted: values with * unexplained. Here is the method:
For cAMP formation studies to determine potentcy, a homogeneous time resolved fluorescence (HTRF®) components for cAMP was purchased by CisBio (Bedford, MA). HL-60 cells were grown in 10% charcoal-stripped RPMI media for 72 hours prior to assays. Cells were centrifuged and counted with a hemocytometer from Hausser Scientific (Horsham, PA). The total number of cells needed to complete the assay was determined based upon 8,000 cells/well. The determined number of cells was diluted in 5:1 (5×) stimulation buffer contain 500 μM of 3-isobutyl-1-methylxanthine (IBMX) (Sigma Aldrich, Saint Louis, MO). To an HTRF 96-well low volume white plate from CisBio, 2 μL of (5×) agonist was added to the designated wells, followed by 8 μL of col cell suspension. Two controls were run during the experiment to establish basal cAMP formation and […] cAMP with the use of 20 μM forskolin. Cells were covered with a clear plastic film and incubated at 37° C. for 15 mins. During the 15 minutes incubation a 4:1 solution of lysis buffer to dye was prepared individually. After the 15 minute incubation 5 μL of lysis buffer/cAMP-d2 (acceptor) and 5 μL of lysis buffer/monocolonal anti-cAMP Eu3^+ cryptate (donor) were added to all wells. Once added, the plate was sealed, covered with aluminum foil, and incubated at room temperature for 30 mins. After the allotted time cells were read using Flexstation3 and with λex 314 nm and λem 665 nm/λem 620. Antagonism assay format varied slightly. […] To the plate, 2 μL of (5×) antagonist were added dose wise followed by the addition of 6 μL of cold cell suspension to all wells. Controls from the agonism assay remained the same in the antagonism assay. Cells and antagonists were incubated for 20 minutes at 37° C. […] Similar to the agonism assay a 4:1 ratio of lysis buffer to donor/acceptor were prepared. Following the previous incubation period, 5 μL of lysis buffer/cAMP-d2 (acceptor) and 5 μL of lysis buffer/monocolonal anti-cAMP Eu3^+ cryptate (donor) were added to all wells. Cells were allowed to equilibrate at room temperature for 30 minutes before being read at λex 314 nm and λem 665 nm/λem 620.
(§1) Calcium mobilization signal was assessed with the use of 0.1% pluronic acid and 5 μM Indo-1AM, a ratiometric dye. The EC50 values were determined based upon triplicate runs on triplicate plates. […] Cyclic AMP formation through the Gi/o-pathway was monitored utilizing a homogenous time-resolved fluorescence assay purchased from CisBio. A triplicate was performed and an EC50 value was calculated. […] The EC50 values were determined based upon triplicate runs on a triplicate plates.
(In general: TR-FRET usually uses a lanthanide donor and a delayed reading to cut background.)

Assay [2] has as its target T2, G protein-coupled estrogen receptor (GPER). Kind of assay: calcium mobilization assay in HL-60 cells (Indo-1AM). The note with it: triplicate runs on triplicate plates, read-out: EC50 (Ca^2+). Here is the method: For the calcium mobilization studies, Human Myelocytic Leukemia (HL-60) cells were grown in phenol red free media containing 10% activated fetal bovine serum (FBS), 1% Pen-Strep, and 1% Glutamax. Cells were grown to no more than 1×10^6 cells/mL to prevent differentiation before being split. Prior to assay cells were transferred to phenol red free media containing charcoal-stripped FBS. On the day of the assay cells were centrifuged down at 16.4 G for 5 minutes and washed with 50:1 HBSS/HEPES. Cells were resuspended at 1×10^7 cells/mL in 50:1 HBSS/HEPES. To the resuspended cells, […] pluronic acid and 5 uM of fluorescent calcium indicator, Indo-1AM, were added. The dye solution was incubated for 0.5 hrs at room temperature with rocking. After 30 minutes cells were spun down, and resuspended in 50:1 HBSS/HEPES. Cells were placed on ice for at least 5 minutes and then resuspended in 8.5 mL of 50:1 HBSS/HEPES for agonism assays. For agonism assays 160 μL of cell suspension were added to a 96-well plate and were incubated at […] for 20 minutes in a FlexStation® 3 plate reader (Molecular Devices). Inside the plate reader, 40 μL of agonist were added to each well and excited with 350 nm and read at emissions of 405 nm and 490 nm.
as §1

Assay [3] concerns E18 embryonic rat cortical neurons. Kind of assay: neurite outgrowth in E18 embryonic rat neurons. The note with it: for neurite outgrowth with GPER antagonist G-15: 100 nM agonist plus 100 nM G-15; for neurite outgrowth: 100 nM agonist, 72 hours, compared to vehicle control.

T2 sequence (Q99527 whole entry): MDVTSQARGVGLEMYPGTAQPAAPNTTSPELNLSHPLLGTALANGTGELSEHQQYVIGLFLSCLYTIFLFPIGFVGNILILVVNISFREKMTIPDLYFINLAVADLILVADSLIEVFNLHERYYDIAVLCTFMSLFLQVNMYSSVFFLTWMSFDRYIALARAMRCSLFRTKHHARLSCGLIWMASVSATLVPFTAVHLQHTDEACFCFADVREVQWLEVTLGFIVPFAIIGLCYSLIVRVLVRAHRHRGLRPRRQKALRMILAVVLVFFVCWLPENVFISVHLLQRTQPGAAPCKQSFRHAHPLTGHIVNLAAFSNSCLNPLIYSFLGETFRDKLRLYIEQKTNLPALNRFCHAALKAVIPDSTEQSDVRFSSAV
T1 sequence (Q99527 whole entry): as above

On to `CC(C)c1ccc(NCc2ccc(C3OCCO3)o2)c(C2CCCCC2)c1` [Compound 3], for which the “change in calcium efflux in response to G-36” value (shortened to “change in calcium efflux”) on GPER is reported as “significant reduction”. Also, the EC50 turned out to be 948 ± 272 nM in assay [1] and 94.4 ± 11.8 nM in assay [2].

On to `CC(C)c1ccc(NCc2ccc(C3CCCCO3)o2)c(C2CCCCC2)c1` (stereo not drawn) [Compound 4], for which the “change in calcium efflux” value on GPER is given as “significant reduction”. For the same compound, the EC50 stood at 290 ± 58 nM in assay [1] and 38.7 ± 12.9 nM in assay [2].

As to `CCOCc1ccc(CNc2ccc(C(C)C)cc2C2CCCCC2)o1` [Compound 5], at GPER, the “change in calcium efflux” value is given as “statistically significant decrease” and the “calcium signal when antagonized with G-36” value is given as “reduced to basal response”. The half-maximal effective concentration (EC50) in assay [1] came out at 389 ± 61.6 nM. For the same compound, the EC50 in assay [2] is 50.8 ± 5.81 nM. Further, in assay [3], the “neurite outgrowth with GPER antagonist G-15” value is reported as “reduction in signal” and the neurite outgrowth entry is given as “statistically significant increase”.

In the case of `COc1ccc(CNc2ccc(C(C)C)cc2C2CCCCC2)cn1` [Compound 6], the results for the 50% effective concentration (EC50) in assay [1] and in assay [2] were 1250 ± 304 nM and 52.1 ± 12.1 nM, respectively.

Regarding `COCc1ccc(CNc2ccc(C(C)C)cc2C2CCCCC2)o1` [Compound 7], at GPER, the “change in calcium efflux” value was “statistically significant decrease” and the “calcium signal when antagonized with G-36” value was “reduced to basal response”. For the same compound, the EC50 in assay [1] worked out at 830 ± 273 nM. Further, the EC50 in assay [2] amounted to 60.1 ± 18.2 nM.

Take `CC(C)c1ccc(NCc2ccoc2)c(C2CCCCC2)c1` [Compound 26]: in assay [3], the “neurite outgrowth with GPER antagonist G-15” value is “significantly diminished” and the neurite outgrowth result is given as “statistically significant increase”.

On to `CCOCc1ccc(CNc2ccc(C(C)C)cc2C2CCCCC2)o1` [Compound 37], for which, in assay [3], the “neurite outgrowth with GPER antagonist G-15” value is “significantly diminished” and the neurite outgrowth entry is given as “statistically significant increase”.

`CC(=O)c1ccc2c(c1)C1C=CCC1C(c1cc3c(cc1Br)OCO3)N2` (stereo not drawn) [Compound G-1, reference compound]: in assay [3], the “neurite outgrowth with GPER antagonist G-15” value is “reduction in signal” and the neurite outgrowth entry is on record as “statistically significant increase”.
